Data from patent US8192962B2, “Processes for detecting toxic substances” (Daikin Industries, Ltd., priority 2001, dated 2012).

System: Stress protein genes
Experiment: DNA chip mRNA expression in yeast, stress protein genes (Table 6)
Format: cell-based, Saccharomyces cerevisiae S288C
Protocol: Yeast (Saccharomyces cerevisiae S288C (α SUC2mal mel gap2 CUP1)) were incubated at 25° C. on YPD medium (yeast extract 1%, polypepton 2%, glucose 2%). One of toxic chemical substances was added to the cells at logarithmic growth phase, and the cells were further incubated for two hours. Cells were cultured without any chemical substance in the same condition, and were used as control. Concentrations of the chemical substances were defined to inhibit the growth of the yeast but not lead to death.
After completion of the incubation, the culture was centrifuged to collect the cells. To the cells, sodium acetate buffer (50 mM sodium acetate, 10 mM EDTA, 1% SDS) was added, and the mixture was shaken at 65° C. for five minutes, followed by returning to room temperature, and obtaining the supernatant, of which the procedures were repeated two times. To the supernatant, ½ amount of a solution of phenol/chloroform was added, and the mixture was centrifuged to give a supernatant, which was added with an equal amount of chloroform, and the mixture was centrifuged to give a supernatant. To the supernatant, an equal amount of isopropanol containing 0.3 M sodium acetate was added, and the mixture was allowed to stand at room temperature for 30 minutes, after which the mixture was centrifuged to give a sediment of the whole RNAs. Seventy % ethanol was added to the sediment, and the mixture was again centrifuged to give a sediment, which was then dried and dissolved in water. mRNA was isolated from the whole RNAs as followings. In view of the fact that a poly A chain is attached to the 3′ terminus of mRNA, a polynucleotide having a poly T structure which was immobilized on the surface of latex beads was used to trap the mRNA, and then the mRNA was washed and eluted with spine column (Oligotex-dT30<Super>mRNA Purification Kit, Takara). Reverse transcription of the mRNA was conducted with a reverse transcriptase (Super Script II Reverse Transcriptase; catalogue No. 18064-014, GibcoBRL) using fluorescence-labeled nucleotides to give cDNAs that were introduced with Cy3-dUTP or Cy5-dUTP during the reverse transcription.
The labeled cDNAs were dissolved in TE buffer (10mM Tris-HCl/1 mM EDTA, pH8.0), and the solution was dropped on the DNA chip containing the whole genes of yeast (DNA Chip Research Inc. Japan) so that the cDNAs were hybridized on the DNA chip at 65° C. for over 12 hours. The fluoresces intensity of the DNA chip was read with a scanner, and the ratio relative to the fluorescence intensity resulting from the absence of chemical substance was estimated as the following, which is shown in Tables 1 to 9: […]

SMILES: [Cl][Cd][Cl] [(2), CdCl2]
- The level of expressed mRNA in the presence of chemical substance/The level of expressed mRNA in the absence of chemical substance (yeast gene YAL005C): 1.6
- The level of expressed mRNA in the presence of chemical substance/The level of expressed mRNA in the absence of chemical substance (yeast gene YAL015C): 1.1
- The level of expressed mRNA in the presence of chemical substance/The level of expressed mRNA in the absence of chemical substance (yeast gene YBL075C): 4.3
- The level of expressed mRNA in the presence of chemical substance/The level of expressed mRNA in the absence of chemical substance (yeast gene YBL093C): 2.0
- The level of expressed mRNA in the presence of chemical substance/The level of expressed mRNA in the absence of chemical substance (yeast gene YBR044C): 1.4
- The level of expressed mRNA in the presence of chemical substance/The level of expressed mRNA in the absence of chemical substance (yeast gene YBR054W): 1.8
- The level of expressed mRNA in the presence of chemical substance/The level of expressed mRNA in the absence of chemical substance (yeast gene YBR067C): 2.5
- The level of expressed mRNA in the presence of chemical substance/The level of expressed mRNA in the absence of chemical substance (yeast gene YBR072W): 17.4
- The level of expressed mRNA in the presence of chemical substance/The level of expressed mRNA in the absence of chemical substance (yeast gene YBR126C): 1.9
- The level of expressed mRNA in the presence of chemical substance/The level of expressed mRNA in the absence of chemical substance (yeast gene YBR169C): 2.1
- The level of expressed mRNA in the presence of chemical substance/The level of expressed mRNA in the absence of chemical substance (yeast gene YCL035C): 2.3
- The level of expressed mRNA in the presence of chemical substance/The level of expressed mRNA in the absence of chemical substance (yeast gene YCR021C): 1.4
- The level of expressed mRNA in the presence of chemical substance/The level of expressed mRNA in the absence of chemical substance (yeast gene YCR060W): 0.7
- The level of expressed mRNA in the presence of chemical substance/The level of expressed mRNA in the absence of chemical substance (yeast gene YCR083W): 2.8
- The level of expressed mRNA in the presence of chemical substance/The level of expressed mRNA in the absence of chemical substance (yeast gene YDL022W): 2.6
- The level of expressed mRNA in the presence of chemical substance/The level of expressed mRNA in the absence of chemical substance (yeast gene YDL025C): 5.0
- The level of expressed mRNA in the presence of chemical substance/The level of expressed mRNA in the absence of chemical substance (yeast gene YDR033W): 1.3
- The level of expressed mRNA in the presence of chemical substance/The level of expressed mRNA in the absence of chemical substance (yeast gene YDR077W): 1.0
- The level of expressed mRNA in the presence of chemical substance/The level of expressed mRNA in the absence of chemical substance (yeast gene YDR098C): 1.4
- The level of expressed mRNA in the presence of chemical substance/The level of expressed mRNA in the absence of chemical substance (yeast gene YDR155C): 1.5
- The level of expressed mRNA in the presence of chemical substance/The level of expressed mRNA in the absence of chemical substance (yeast gene YDR258C): 2.3
- The level of expressed mRNA in the presence of chemical substance/The level of expressed mRNA in the absence of chemical substance (yeast gene YDR293C): 0.9
- The level of expressed mRNA in the presence of chemical substance/The level of expressed mRNA in the absence of chemical substance (yeast gene YDR436W): 0.9
- The level of expressed mRNA in the presence of chemical substance/The level of expressed mRNA in the absence of chemical substance (yeast gene YDR513W): 2.5
- The level of expressed mRNA in the presence of chemical substance/The level of expressed mRNA in the absence of chemical substance (yeast gene YDR519W): 3.2
- The level of expressed mRNA in the presence of chemical substance/The level of expressed mRNA in the absence of chemical substance (yeast gene YEL030W): 0.9
- The level of expressed mRNA in the presence of chemical substance/The level of expressed mRNA in the absence of chemical substance (yeast gene YEL039C): 0.7
- The level of expressed mRNA in the presence of chemical substance/The level of expressed mRNA in the absence of chemical substance (yeast gene YER042W): 2.2
- The level of expressed mRNA in the presence of chemical substance/The level of expressed mRNA in the absence of chemical substance (yeast gene YER057C): 2.0
- The level of expressed mRNA in the presence of chemical substance/The level of expressed mRNA in the absence of chemical substance (yeast gene YER103W): 2.1
- The level of expressed mRNA in the presence of chemical substance/The level of expressed mRNA in the absence of chemical substance (yeast gene YER125W): 1.1
- The level of expressed mRNA in the presence of chemical substance/The level of expressed mRNA in the absence of chemical substance (yeast gene YFL014W): 5.1
- The level of expressed mRNA in the presence of chemical substance/The level of expressed mRNA in the absence of chemical substance (yeast gene YFL016C): 1.0
- The level of expressed mRNA in the presence of chemical substance/The level of expressed mRNA in the absence of chemical substance (yeast gene YFL020C): 1.1
- The level of expressed mRNA in the presence of chemical substance/The level of expressed mRNA in the absence of chemical substance (yeast gene YFR052W): 1.6
- The level of expressed mRNA in the presence of chemical substance/The level of expressed mRNA in the absence of chemical substance (yeast gene YGL073W): 2.1
- The level of expressed mRNA in the presence of chemical substance/The level of expressed mRNA in the absence of chemical substance (yeast gene YGL115W): 0.6
- The level of expressed mRNA in the presence of chemical substance/The level of expressed mRNA in the absence of chemical substance (yeast gene YGL181W): 0.9
- The level of expressed mRNA in the presence of chemical substance/The level of expressed mRNA in the absence of chemical substance (yeast gene YGR088W): 1.2
- The level of expressed mRNA in the presence of chemical substance/The level of expressed mRNA in the absence of chemical substance (yeast gene YHL028W): 0.8
- The level of expressed mRNA in the presence of chemical substance/The level of expressed mRNA in the absence of chemical substance (yeast gene YHL046C): 1.7
- The level of expressed mRNA in the presence of chemical substance/The level of expressed mRNA in the absence of chemical substance (yeast gene YHR030C): 0.8
- The level of expressed mRNA in the presence of chemical substance/The level of expressed mRNA in the absence of chemical substance (yeast gene YHR057C): 1.2
- The level of expressed mRNA in the presence of chemical substance/The level of expressed mRNA in the absence of chemical substance (yeast gene YHR104W): 4.1
- The level of expressed mRNA in the presence of chemical substance/The level of expressed mRNA in the absence of chemical substance (yeast gene YIL011W): 0.5
